Four molecules from PMC8691750, “Euphorbia Factor L2 ameliorates the Progression of K/BxN Serum-Induced Arthritis by Blocking TLR7 Mediated IRAK4/IKKβ/IRF5 and NF-kB Signaling Pathways” (Frontiers in Pharmacology, 2021) can be followed below.

In assay [1] the test system is synovial hyperplasia and articular inflammatory cells infiltration in knee joints. The assay is described as follows: Histological assessment (H&E) of knee joints of STA mice. Type of assay: in vivo, C57BL/6 mice. Particulars: DEX 30 mg/kg gavage. How it is done: (§1) K/BxN serum was collected from K/BxN mice at 8 weeks of age, pooled, aliquoted and stored at -20 °C. K/BxN serum-transfer arthritis (STA) model was induced by intraperitoneal (i.p.) application of 150 μL of serum at day 0. Clinical score for arthritis severity was assessed using a 0–4 point scale for each paw at various time points (0–16 total score) as described previously ([Luo et al., 2011]). 8-week old male C57BL/6 mice were purchased from Dashuo Animal Center (China, Chengdu), maintained at 25°C, and exposed to 12-h light and dark cycles. Mice were fed with standard laboratory chow and water with 1 week of acclimatization. Naive mice were used as the control group. Except the control mice, all mice were i. p. injected with 150 μL of serum, then randomly divided into the following groups and treated with different compounds daily for the consecutive 8 days: 1) STA group; 2) Solvent control group, mice were gavaged with the solvent; 3) Dexamethasone (DEX) group, mice were gavaged with 30 mg/kg DEX; 4) EFL2 group 1, mice were gavaged with 40 mg/kg EFL2; 5) EFL2 group 2, mice were intraperitoneally injected with 15 mg/kg EFL2; 6) EFL2 group 3, […] were intraperitoneally injected with 40 mg/kg EFL2. […] All animal experiments were conducted in accordance with ethical regulation for animal care and use in China.
The left knee joints were removed on day 13 post STA and fixed in 4% formaldehyde overnight at 4°C. The tissues were decalcified in EDTA and sectioned after embedding in paraffin. 5 μm sections were deparaffinized with xylene, re-hydrated with 100, 95 and 80% ethanol and then stained with hematoxylin and eosin (H&E). Histopathological changes in the knee joints were measured using a semiquantitative scoring system (0–4 scale) to assess synovial hyperplasia and articular inflammatory cells infiltration as previously described ([Yamanishi et al., 2002]).

In assay [2] the test system is TNF-α, IL-4, IL-17A, IL-1β and IL-6 in serum. Description: Cytokines in sera of STA mice (CBA Multiplex kit, ELISA). Type of assay: in vivo, C57BL/6 mice. The conditions noted are these: STA mice; DEX 30 mg/kg gavage. How it is done:
as §1
(§2) IL-4, IL-17A and TNF-α in sera from different group mice were measured using CBA Multiplex kit (BD, United States). The concentrations of IL-1β and IL-6 in serum or supernatant were detected by ELISA Kit (MULTI SCIENCES, China) according to the manufacturers’ instructions.

The test system of assay [3] is K/BxN serum-transfer arthritis (STA) model. The assay is described as follows: K/BxN serum-transfer arthritis (STA) model, arthritic index / clinical score. Type of assay: in vivo, C57BL/6 mice. The conditions noted are these: STA mice; DEX 30 mg/kg gavage daily. How it is done:
as §1

The test system of assay [4] is TLR7 (R837) / TLR3 (poly:IC) induced cytokine production in RAW264.7 cells. The assay is described as follows: ELISA of IL-1β and IL-6 in supernatant of R837 and/or poly:IC stimulated RAW264.7 cells. Type of assay: cell-based, mouse. The procedure:
(§3) RAW264.7 cells (5×10^5/ml), BMDMs (5×10^5/ml) and PBMCs (2×10^6/ml) were plated in 96-well plates and incubated overnight. […] For the anti-inflammatory molecular mechanism study, RAW264.7 cells (5×10^5/ml) were plated in 96-well plates and stimulated with R837 (20 μg/ml) with or without the addition of NF-κB inhibitor (JSH-23, […]) for 24 h. After 24 h, the culture supernatant was collected for cytokines measurements.
as §2
(In an ELISA, binding on a coated surface is turned into a signal by an enzyme label.)

The subject of assay [5] is TLR7 (R837) induced cytokine production in PBMCs. Description: ELISA of IL-1β and IL-6 in supernatant of R837 stimulated PBMCs. Type of assay: cell-based, human. The conditions noted are these: PBMCs; R837 alone. How it is done: (§4) RAW264.7 cells, a mouse macrophage cell line, were cultured in DMEM medium containing 10% fetal bovine serum (FBS), 1% penicillin-streptomycin and maintained at 37 °C in 5% CO2 humidified air. Bone marrow-derived macrophages (BMDMs) generation was performed as following description. In brief, bone marrow cells were harvested from tibias and femurs of C57BL/6 mice and differentiated for 7 days in DMEM medium supplemented with 10% FBS, 1% penicillin-streptomycin and 50 ng/ml M-CSF. For human peripheral blood mononuclear cells (PBMCs) preparation, 5 ml peripheral venous blood was obtained from healthy donors in West China Hospital. PBMCs were isolated with Human Lymphocyte Separation Medium (LTS1077, Tian Jing, China) according to the manufacturer’s instructions. The experimental protocols were performed according to the approved guidelines established by the Institutional Human Research Subject Protection Committee of the Ethics Committee of West China Hospital, Sichuan University, China.
RAW264.7 cells (5×10^5/ml), BMDMs (5×10^5/ml) and PBMCs (2×10^6/ml) were plated in 96-well plates and incubated overnight. […]
as §2

The test system of assay [6] is TLR7-mediated IRAK4/IKKβ/IRF5 signaling pathway. Description: Western blot, IRAK4/IKKβ/IRF5 in R837-stimulated RAW264.7 cells. The class given is cell-based, mouse. Particulars: RAW264.7 cells; R837 alone. How it is done:
(§5) RAW264.7 cells (2×10^6 cells/well) were plated into 6-well plates and then incubated at 37°C in 5% CO2 for 24 h. After incubated with various concentrations of EFL2 (1, 5 and 10 µM) for 1 h, cells were then stimulated by R837 (20 μg/ml) for 30 min. Cell lysates were prepared by direct lysis in 20 µL IP buffer (Beyotime Biotechnology, Shanghai, China). After obtaining the whole cell extracts, the cytosolic and nuclear were seperated using Nuclear and Cytoplasmic Protein Extraction Kit (Beyotime Biotechnology, Shanghai, China). BCA Protein Assay Kit (Beyotime Biotechnology, Nantong, China) was applied to determine the protein concentrations. The bands corresponding to p- IKKα/β, IKKα/β, p-IκBα, IκBα, p-p65, p65, p-IRAK4, IRAK4, p-IKKβ, IKKβ, p-IRF5, IRF5, β-actin and Lamin B were visualized using a Western Blot Detection Chemiluminescence Kit (Merck). Protein extracted from the total lysates/cytoplasm and nucleus was quantified in relation to β-actin and Lamin B bands, respectively.
(§6) The antibodies used in the experiments were as follows: rabbit anti-mouse IKKα/β polyclonal antibody (1:1,000, Abways, China), rabbit anti-mouse IκBα polyclonal antibody (1:1,000, Abgent, China), rabbit anti-mouse p65 polyclonal antibody (1:1,000, Abgent, China), rabbit anti-mouse phosphorylated IKKα (Ser176)/β (Ser177) (1:1,000, Abways, China), rabbit anti-mouse phosphorylated IκBα (1:1,000, Abcam, United States), rabbit anti-mouse phosphorylated p65 (1:1,000, Abcam, United States), rabbit anti-mouse IRAK4 polyclonal antibody (1:1,000, Proteintech, United States), rabbit anti-mouse phosphorylated IRAK4 (Thr345/Ser346) (1:1,000, Affinity, United States), rabbit anti-mouse IKKβ polyclonal antibody (1:1,000, Abbkine, United States), rabbit anti-mouse phosphorylated IKKβ (Ser177) (1:1,000, Abways, China), rabbit anti-mouse IRF5 polyclonal antibody (1:1,000, Immunoway, United States), rabbit anti-mouse phosphorylated IRF5 (Ser437) (1:1,000, Affinity, United States), anti-mouse actin monoclonal antibody (1:20,000, Transgen, China) and rabbit anti-mouse LaminB monoclonal antibody (1:5,000, Abways, China).
(In general: A western blot detects proteins with antibodies after separation by electrophoresis.)

Assay [7] deals with TLR7 (R837) / TLR3 (poly:IC) induced cytokine production in BMDMs. The assay is described as follows: ELISA of IL-1β and IL-6 in supernatant of R837 and/or poly:IC stimulated BMDMs. Type of assay: cell-based, C57BL/6 mice. The procedure:
as §4, §3, §2

The subject of assay [8] is P65 and IRF5 translocation. Description: Confocal microscopy of p65 and IRF5 translocation in RAW264.7 cells. Type of assay: cell-based, mouse. The conditions noted are these: R837 alone, immunofluorescence staining. How it is done:
P65 and IRF5 translocation activity was analyzed by confocal microscopy. Briefly, 1×10^5 RAW264.7 cells were plated on coverslips overnight. Cells were pretreated with various concentrations of EFL2 (1, 5 and 10 µM) for 1 h and then stimulated by R837 (20 μg/ml) for 30 min. After washed with ice-cold PBS, RAW264.7 cells were fixed with 4% paraformaldehyde for 20 min at room temperature. The coverslips were washed with PBS with 0.2% tween 20 and blocked with 5% goat serum. Primary antibodies were applied to coverslips overnight at 4°C, followed by secondary antibodies incubation for 1 h at room temperature. After three times wash, coverslips were mounted with Fluoroshield™ with DAPI (Solarbio, China) and images were acquired by confocal microscopy (ZEISS, Germany). Primary antibody: rabbit anti-mouse IRF5 (1:800, Abcam, China); rabbit anti-mouse p65 (1:1,000, Abcam, China). Secondary antibody: Alexa eFluor®488 conjugated goat anti-rabbit IgG (1:2000, Thermo Fisher Scientific, Carlsbad, United States).

The test system of assay [9] is TLR7-mediated NF-κB signaling pathway (IKKα/β, IκBα, p65). Description: Western blot, NF-κB pathway in R837-stimulated RAW264.7 cells. Type of assay: cell-based, mouse. Particulars: RAW264.7 cells; R837 alone. The procedure:
as §5, §6

Where [10] appears, read: RAW 264.7 cells, JSH-23 10 μM, 24 h.

As to `C[C@@H]1C[C@H]2[C@@H]3CCC4=CC(=O)C=C[C@]4(C)[C@@]3(F)[C@@H](O)C[C@]2(C)[C@@]1(O)C(=O)CO` [DEX, Dexamethasone, reference compound], in [1], the “inflammatory status and inflamed synovium in joints” value is “significantly inhibited”. Besides, in [2], the “IL-1β level in sera” value is listed as “significantly reduced” and the “IL-6 level in sera” value is listed as “significantly reduced”. For the same molecule, in [3], the arthritis clinical scores entry is “significantly lowered”.

Regarding `Cc1ccc(NCCCc2ccccc2)c(N)c1` [JSH-23], in assay [4] (setting [10]), the “R837-induced IL-1β production” value was “to a large extent, blocked” and the “R837-induced IL-6 secretion” value is given as “only partially reduced”.

For `CC(C)Cn1cnc2c(N)nc3ccccc3c21` [R837, imiquimod, reference compound], the “IL-1β and IL-6 release in the supernatant” value is given as “robustly induced” in assay [4] (RAW264.7 cells, R837 alone (20 μg/ml)); “robustly induced” in assay [5]; “robustly induced” in [7] (BMDMs, R837 alone (20 μg/ml)). For the same molecule, in assay [6], the “phosphorylation of IRAK4 and IKKβ” value is recorded as “rapidly triggered”. In addition, the “IRF5 translocation from cytoplasm to nucleus” value in assay [8] is reported as “dramatically induced”. In [9], the “phosphorylation of IKKα/β and IκB-α” value was “rapidly occurs”.

Consider poly (I:C) [reference compound], for which the “IL-1β and IL-6 production” value in assay [4] (R837-stimulated RAW264.7 cells, addition of poly (I:C)) is recorded as “did enhance”; in [7] (BMDMs, poly (I:C) alone (1 μg/ml)), “did not affect”; in [7] (R837-stimulated BMDMs, addition of poly (I:C)), “did enhance”. Further, the “IL-1β and IL-6 secretion” value in [4] (RAW264.7 cells, poly (I:C) alone (1 μg/ml)) is “significantly increased”.
